Each structure is given as a SMILES string.

The conditions of data set [1]: compared to BCNU; cited from earlier work.
In data set [2] the test system is xenografts in nude mice. The following applies: in some cases; cited from earlier work.
The test system of data set [3] is human renal cell carcinomas (SKRC-7, 786-0). It is filed as cell-based.
Data set [4] concerns Sprague-Dawley rats. The following applies: corresponding amounts of unconjugated Orellanine, within four days; cited from earlier work.
Data set [5] has as its system human renal cancer cells. The following applies: cells derived from a primary tumor or from metastatic tumor tissue; cited from earlier work.

Regarding `O=NN(CCCl)C(=O)NCCO` [HECNU, 1-(2-chloroethyl)-1-nitroso-3-(2-hydroxyethyl)urea], the water solubility entry in data set [1] is recorded as “improved water solubility”.
With `Cc1cc(N(CCOS(C)(=O)=O)CCOS(C)(=O)=O)ccc1C=O` [NSC-281612], in data set [2], the “effect on tumor mass” value is recorded as “apparently complete eradication of the tumor mass”.
Regarding `[O-][n+]1ccc(O)c(O)c1-c1c(O)c(O)cc[n+]1[O-]` [Orellanine, 3,3′,4,4′-tetrahydroxy-2,2′-bipyridine-N,N′-dioxide], in data set [3], the “correlation between exposure concentration and fraction of cells that die” value is given as “clear correlation”; the “delay between administration and onset of cell death” value is given as 48 h. The “loss of GFR” value in data set [4] is given as “almost total loss of GFR”. The “killing of renal cancer cells” value in data set [5] was “kills them with great efficiency”.

The record behind these values is US9005580B2, “Treatment of renal cell carcinoma” (priority 2010, dated 2015).
